Source: EP1963277B1, “FLUORINATED COMPOUNDS” (priority 2005, dated 2007)
Read-outs that look alike come from different tables or passages of the source.

How the values were obtained:
Type in all cases: in vivo
Male, CD-1 mice = assay: Maximal Electroshock Assay (mouse); settings: for duration of action: mouse MES, judged by similar potency at 1h and 4h pretreatment timepoints; for Ratio ED50 4h vs. 1h / shift in ED50 for 1 vs. 4h / ED50: mouse; for Ratio ED50 4h vs. 1h / shift in ED50 for 1 vs. 4h: oral; for ED50: oral pretreatment, range in parentheses
Experimental: Male, CD-1 mice (20-30g body weight) were orally pretreated with test compound or vehicle control, and either at 1h or 4h post dose a maximal electroshock (45mA amplitude, 0.2s duration, 60Hz) was applied by corneal electrodes. Protection was defined by the absence of a tonic extensor seizure in the animal within 20s of application of the electrical stimulus, which typically occurred in all vehicle pretreated animals. Animals received only one electroshock and so separate animals were used for the 1h and 4h timepoints. All drugs were administered in multiple doses.

[1] = tested on: Male, Sprague-Dawley rats; assay: Maximal Electroshock Assay (rat); settings: for duration of action: rat MES, judged by similar potency at 0.5h and 4h pretreatment timepoints; for Ratio ED50 4h vs. 0.5h / shift in ED50 for 0.5 vs. 4h / ED50: rat; for Ratio ED50 4h vs. 0.5h / shift in ED50 for 0.5 vs. 4h: oral; for ED50: oral pretreatment, range in parentheses
Experimental: Male, Sprague-Dawley rats (approx. 100g body weight) were prescreened for tonic seizure susceptibility prior to drug testing. […] Protection was defined by the absence of a tonic extensor seizure in the animal within 20s of application of the electrical stimulus, which typically occurred in all vehicle pretreated animals. Animals received only one electroshock on the drug test day and so separate animals were used for the 0.5h and 4h timepoints. All drugs were administered in multiple doses.

rats = assay: Persistent Inflammatory Pain (Formalin Model); settings: Rattus norvegicus, formalin test, 30 min pretreatment; for inhibition at 30 mg/kg: ip, i.p.; for inhibition at 60 mg/kg: po, p.o.
Experimental: The formalin test is a chemically-induced tonic pain model in which injection of formalin into a hind paw elicits a biphasic nociceptive behavior. The second phase of formalin response is predominantly due to a central sensitization phenomenon. Most clinically used drugs against neuropathic pain arc active on this second phase of formalin response. Formalin test is accepted as a valid model of persistent clinical pain.
The test was done by pretreating the rats with the test compound and 30 min later (pretreatment time), 50 µl of 2.5% formalin was injected into the right hind paw of the animal. The number of paw licking and flinching episodes were scored for 60 min post-formalin injection.
The compounds were administered either intraperitoneally (30 mg/kg) or orally (60 mg/kg).

SNI rats [2] = assay: Spared Nerve Injury (SNI) model, mechanical allodynia (Dynamic Plantar Aesthesiometer); settings: for withdrawal threshold, Post Admin 30 min / withdrawal threshold, Post Admin 180 min / withdrawal threshold, Post Admin 60 min: *** P<0.001 vs Pre-Admin.; for withdrawal threshold, Pre-Admin. 0 min: baseline before administration
Experimental: (§1) The compounds were tested for their efficacy in reducing mechanical allodynia and cold allodynia in the spared nerve injury (SNI) model of chronic neuropathic pain. In this model, the left sciatic nerve of the rat is exposed under anesthesia. Two of the branches of the sciatic nerve viz. the common peroneal and tibial nerve are ligated and sectioned. The third branch (sural nerve) is left intact. The animals were allowed a post-operative recovery period of 7 days before they were subjected to any test.
The presence of mechanical allodynia was assessed using the Dynamic Plantar Aesthesiometer (Ugo Basile, Italy) which is a modified version of the Von Frey Hair test. In this, a test filament is positioned below the animal's hind paw and the unit is activated which causes the filament to move up and touch the plantar surface of the hind paw. Increasing force is applied to the paw via the filament. […] The cut-off force is set at 50 g. The tests were done on both the non-injured (control) and the injured (SNI) paw.
Testing of compounds was done after 21 days post-operatively. After initial basal readings were taken, the test compound or the vehicle was administered (10 ml/kg) either intraperitoneally (30 mg/kg) or orally (60 mg/kg). The readings were taken again 30, 60 and 180 min after the compound/vehicle administration.

SNI rats [3] = assay: Spared Nerve Injury (SNI) model, cold allodynia (acetone test); settings: for duration (s) of nociceptive response, Post Admin 30 min: *** P<0.001 vs Pre-Admin.; for duration (s) of nociceptive response, Pre-Admin. 0 min: baseline before administration
Experimental: as §1
Cold allodynia was assessed by using the acetone test. In this model, 25 µl of acetone is sprayed on to the plantar surface of the hind paw. Evaporation of acetone causes cooling of the skin. The cold stimulus sets up nociceptive responses from the injured paw as evidenced by paw lifting, paw licking and grooming. The duration of the nociceptive responses is noted.
Testing of compounds was done after 21 days post-operatively. After initial basal readings were taken, the test compound or the vehicle was administered (10 ml/kg) either intraperitoneally (30 mg/kg) or orally (60 mg/kg). The readings were taken 30 min after the administration.

FCA-treated rats [4] = assay: Freund's Complete Adjuvant (FCA) model, mechanical allodynia (modified Randall-Selitto method); settings: p.o.; for paw withdrawal threshold (g), Post Admin 30 min / paw withdrawal threshold (g), Post Admin 60 min / paw withdrawal threshold (g), Post Admin 180 min: 60 mg/kg, ** P<0.01, *** P<0.001 vs Pre-Admin.; for paw withdrawal threshold (g), Pre-Admin. 0 min: group later given 60 mg/kg, baseline before administration
Experimental: (§2) Administration of FCA to the hind paw of an animal induces the formation of a localized edema and has been widely used as a model of chronic inflammatory pain. 100 µl of FCA is injected subcutaneously into the dorsal aspect of the left hind paw of the rats. The edema appears within 2 h reaches a peak by 6h and lasts for about 7 days. The effects of compounds on mechanical allodynia and paw volume were studied 2 days after FCA administration.
The effect of the compounds in alleviating mechanical allodynia was assessed in the FCA-treated rats using the modified Randall-Selitto method (Analgesy-Meter, Ugo Basile, Italy). The animal's paw is placed on a small plinth under a cone-shaped pusher. Increasing force is applied to the paw by depressing a pedal until vocalization or withdrawal of the paw occurs. The minimum force required to elicit this vocalization/withdrawal is the paw pressure threshold. The cut-off was set at 150 g.
After the initial basal (control) readings were taken, the test compound (60 mg/kg)/vehicle was administered orally in a volume of 10 ml/kg. The paw pressure thresholds were measured 30, 60 and 180 min post administration. […] Some of the compounds were effective even at 60 and 180 min post administration.

FCA-treated rats [5] = assay: Freund's Complete Adjuvant (FCA) model, paw edema/volume (plethysmometer); settings: p.o.; for paw volume (ml), Post Admin 30 min / paw volume (ml), Post Admin 60 min: 60 mg/kg; for paw volume (ml), Pre-Admin. 0 min: group later given 60 mg/kg, baseline before administration
Experimental: as §2
The edema/volume of the paw is a measure of inflammation induced by FCA. This was measured by using a plethysmometer (Ugo Basile, Italy). In this, the paw of the rat is immersed in a reservoir of water and the volume of water displaced indicates the paw volume.
After the initial basal (control) readings were taken, the test compound (60 mg/kg)/vehicle was administered orally in a volume of 10 ml/kg.

[6] = electroshock 1h post dose, blockade of tonic extensor seizure, read-out: MES oral ED50 1h
[7] = read-out: MES oral ED50 4h, electroshock 4h post dose
[8] = read-out: MES oral ED50 0.5h, electroshock 0.5h post dose
[9] = *** P<0.001, read-out: %Inhibition Phase I
[10] = *** P<0.001, read-out: %Inhibition Phase II
[11] = ** P<0.01, *** P<0.001, read-out: %Inhibition Phase II
[12] = group later given 30 mg/kg, i.p.
[13] = group later given 60 mg/kg, p.o.

SMILES | duration of action (Male, CD-1 mice) | Ratio ED50 4h vs. 1h (Male, CD-1 mice) | shift in ED50 for 1 vs. 4h (Male, CD-1 mice) [fold] | ED50 (Male, CD-1 mice; [6]) [mg/kg] | ED50 (Male, CD-1 mice; [7]) [mg/kg] | duration of action [1] | Ratio ED50 4h vs. 0.5h [1] | shift in ED50 for 0.5 vs. 4h [1] [fold] | ED50 [1, 8] [mg/kg] | ED50 [1, 7] [mg/kg] | inhibition at 30 mg/kg (rats; [9]) [%] | inhibition at 30 mg/kg (rats; [10]) [%] | inhibition at 60 mg/kg (rats; [11]) [%] | inhibition at 60 mg/kg (rats; read-out: %Inhibition Phase I) [%] | withdrawal threshold, Post Admin 30 min (SNI rats [2]; 30 mg/kg, i.p.) | withdrawal threshold, Post Admin 180 min (SNI rats [2]; 30 mg/kg, i.p.) | withdrawal threshold, Post Admin 30 min (SNI rats [2]; 60 mg/kg, p.o.) | withdrawal threshold, Post Admin 60 min (SNI rats [2]; 60 mg/kg, p.o.) | withdrawal threshold, Post Admin 180 min (SNI rats [2]; 60 mg/kg, p.o.) [g] | withdrawal threshold, Pre-Admin. 0 min (SNI rats [2]; [12]) [g] | also measured
CC(=O)NC(COC(F)F)C(=O)NCc1ccccc1 (centres unmarked) [Compound 3, 2-(Acetylamino)-N-benzyl-3-(difluoromethoxy)propanamide] | longer than Lacosamide | 3.5 | 1 to 3.5 | 5.7 | 20 | longer than Lacosamide | 1.4 | 1 to 1.4 | 3 | 4.2 | 87.9 ± 12.1 | 90.2 ± 6.5 | 46.1 ± 8.7 | 21.4 ± 10.2 | 22.5 ± 2.1*** g | 14.1 ± 1.6*** g | 19.4 ± 2.3*** g | 20.6 ± 3.1*** g | 10.8 ± 1.8 | 7.5 ± 1.4 | withdrawal threshold, Pre-Admin. 0 min (SNI rats [2]; [13]): 9.7 ± 2.5 g; duration (s) of nociceptive response, Post Admin 30 min (SNI rats [3]; 30 mg/kg, i.p.): 4.3 ± 1.6*** s; duration (s) of nociceptive response, Post Admin 30 min (SNI rats [3]; 60 mg/kg, p.o.): 17.2 ± 6.2*** s; duration (s) of nociceptive response, Pre-Admin. 0 min (SNI rats [3]; [12]): 45.8 ± 9.4 s; duration (s) of nociceptive response, Pre-Admin. 0 min (SNI rats [3]; [13]): 70.7 ± 18.9 s; paw withdrawal threshold (g), Post Admin 30 min (FCA-treated rats [4]): 57.8 ± 4.9** g; paw withdrawal threshold (g), Post Admin 60 min (FCA-treated rats [4]): 46.7 ± 3.8 g; paw withdrawal threshold (g), Post Admin 180 min (FCA-treated rats [4]): 37.8 ± 5.4 g; paw withdrawal threshold (g), Pre-Admin. 0 min (FCA-treated rats [4]): 32.8 ± 6.5 g; paw volume (ml), Post Admin 30 min (FCA-treated rats [5]): 2.3 ± 0.1 mL; paw volume (ml), Post Admin 60 min (FCA-treated rats [5]): 2.3 ± .01 mL; paw volume (ml), Pre-Admin. 0 min (FCA-treated rats [5]): 2.3 ± 0.0 mL
CC(=O)NC(COC(F)F)C(=O)NCc1ccc(F)cc1 (centres unmarked) [Compound 4, 2-(Acetylamino)-3-(difluoromethoxy)-N-(4-fluoro-benzyl)propanamide] | longer than Lacosamide | 1.0 | 1 to 3.5 | 9.8 | 9.8 | longer than Lacosamide | 1.0 | 1 to 1.4 | 3.3 | 3.4 | 94.7 ± 5.3 | 81.6 ± 10 | 41.9 ± 9 | 7.6 ± 6.7 | 16.7 ± 1.4*** g | 13.2 ± 1.0*** g | 15.4 ± 1.1*** g | 16.2 ± 1.7*** g | 7.9 ± 0.6 | 6.7 ± 0.7 | withdrawal threshold, Post Admin 60 min (SNI rats [2]; 30 mg/kg, i.p.): 15.0 ± 0.8*** g; withdrawal threshold, Pre-Admin. 0 min (SNI rats [2]; [13]): 7.5 ± 0.5 g; duration (s) of nociceptive response, Post Admin 30 min (SNI rats [3]; 30 mg/kg, i.p.): 3.1 ± 2.1*** s; duration (s) of nociceptive response, Post Admin 30 min (SNI rats [3]; 60 mg/kg, p.o.): 21.9 ± 6.4*** s; duration (s) of nociceptive response, Pre-Admin. 0 min (SNI rats [3]; [12]): 48.2 ± 10.1 s; duration (s) of nociceptive response, Pre-Admin. 0 min (SNI rats [3]; [13]): 56.2 ± 8.4 s; paw withdrawal threshold (g), Post Admin 30 min (FCA-treated rats [4]): 58.3 ± 4.8** g; paw withdrawal threshold (g), Post Admin 60 min (FCA-treated rats [4]): 49.4 ± 6.4** g; paw withdrawal threshold (g), Post Admin 180 min (FCA-treated rats [4]): 51.1 ± 8.9** g; paw withdrawal threshold (g), Pre-Admin. 0 min (FCA-treated rats [4]): 33.9 ± 4.2 g; paw volume (ml), Post Admin 30 min (FCA-treated rats [5]): 2.08 ± 0.0 mL; paw volume (ml), Post Admin 60 min (FCA-treated rats [5]): 2.11 ± 0.0 mL; paw volume (ml), Pre-Admin. 0 min (FCA-treated rats [5]): 2.01 ± 0.0 mL
